Records with an inconclusive call do not appear.
These compounds were tested on M. tuberculosis H37Rv growth inhibition, 7H9 media (assay: M. tuberculosis growth inhibition, HTS (AID 449762);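 note: bacterial growth assessed after seven days of incubation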).

Compound | IC50
Cc1ccc(-n2cccc2C(=S)N=P(N(C)C)(N(C)C)N(C)C)cc1 | 18.4 µM
COc1ccc(-c2csc(NC(C)c3nc4cc(Cl)c(N5CCCCC5)cc4n3CCCO)n2)cc1 (configuration not stated) | 11.2 µM
Cc1cc2oc3ccc(NCCCn4ccnc4)cc3c(=O)c2cc1C | 18.2 µM
Cn1c(N)c(C(=O)COC(=O)c2ccc([N+](=O)[O-])o2)c(=O)n(C)c1=O | 2.81 µM
C/C(=N\NC(N)=S)c1ccc(Cl)s1 | 12 µM
CCOc1ccc(-c2csc(/C(C#N)=C\c3ccc(O)c([N+](=O)[O-])c3)n2)cc1 | 11.1 µM
O=C(/C=C/c1ccco1)Oc1ccc(C(=S)N2CCOCC2)cc1 | 38.7 µM
S=C(NCc1ccc(Cl)cc1)NC12CC3CC(CC(C3)C1)C2 | 0.7 µM
CN1CCN(c2ccc(S(=O)(=O)N3CCCCC3)cc2NC(=O)/C=C/c2ccc(Cl)c([N+](=O)[O-])c2)CC1 | 30.4 µM
CN1CCc2cc3c(c4c2C1Cc1ccccc1-4)OCO3 (configuration not stated) | 1.66 µM
COc1cc(C2c3cc4c(cc3C(OC3OC5COC(c6cccs6)OC5C(O)C3O)C3COC(=O)C23)OCO4)cc(OC)c1O (configuration not stated) | 13.1 µM
C=CCNc1oc(-c2ccc(-c3ccccc3)cc2)nc1C#N | 12.2 µM
O=C(c1cc([N+](=O)[O-])cc([N+](=O)[O-])c1)N(Cc1nnc(-c2ccccc2Cl)o1)C1CC1 | 2.59 µM
CCCn1nnnc1NC(=O)c1ccc(C)cc1Cl | 7.89 µM
Cc1cc(C)n(-c2ccc(C(=O)Oc3ccc4c(c3)OCO4)cc2)n1 | 4.02 µM
Oc1ccc(C[C@H]2CNCCN2CCCCC2CCCCC2)cc1 | 31.5 µM
CCCC12CN3CC(CCC)(CN(C1)C3c1ccccn1)C2=O (configuration not stated) | 1.02 µM
CCOC(=O)c1ccc(NC2=CC(=O)C(=O)c3ccccc32)cc1 | 31.7 µM
CC(C(c1ccc2c(c1)OCO2)c1c(N)n(C)c(=O)n(C)c1=O)[N+](=O)[O-] (configuration not stated) | 2.54 µM
O=C(CCl)N1CCN2C(=O)c3ccccc3C12c1ccc(Cl)cc1 (configuration not stated) | 5.42 µM
COC(=O)c1ccc2c(=O)[nH]c(CSc3nc(C)cs3)nc2c1 | 69 µM
Nc1nc2ccccc2n1CCOc1ccccc1Cl | 12.1 µM

Compound | IC50
Fc1ccc(C[n+]2c(-c3ccccc3)cc(-c3ccccc3)cc2-c2ccccc2)cc1 | 32.3 µM
O=C(C/C=N\OCc1ccc([N+](=O)[O-])cc1)Nc1ccc(F)cc1F | 20.3 µM
COC(=O)C1CC(=O)N(c2ccc(OCc3ccccc3Cl)cc2)C1 (configuration not stated) | 0.52 µM
CCCC(NCC(O)COc1ccc(-c2ccccc2)cc1)c1ccccc1 (configuration not stated) | 11.5 µM
Clc1ccc2c(c1)CCc1cccnc1C2=C1CCNCC1 | 26.8 µM
COCc1nnc(NC(=O)C2CC(=O)N(c3ccc(C)c(Cl)c3)C2)s1 (configuration not stated) | 51.1 µM
Cc1cc(Cl)ccc1NNC(=O)CCc1ccccc1 | 94.5 µM
CCc1c(C2(O)CCCCC2)[nH]c2ccc(C(F)(F)F)cc12 | 28.4 µM
S=C1SCN(Cc2ccco2)CN1Cc1ccco1 | 32.7 µM
N#C/C(=N/Nc1ccc(OC(F)(F)F)cc1)C(N)=S | 2.14 µM
CC(C)(C)c1ccc(C(=O)NNc2cc(N3CCCCC3)nc(N3CCCCC3)n2)cc1 | 60.6 µM
CCOC(=O)c1ccc(Nc2cc3ccccc3c(=O)[nH]2)cc1 | 72.3 µM
CC(C)(C)c1ccc(C(=O)CSc2n[nH]c(=O)[nH]c2=O)cc1 | 7.69 µM
CCOC(=O)c1c(/N=C/N(C)C)sc(/C=N/Nc2ccccc2)c1-c1ccccc1Cl | 81.8 µM
CCOc1ccc(-c2cnc(NCc3cccc4ccccc34)n2CCOC)cc1 | 5.56 µM
CCCCCCN=C1CC(C)(C)CC(=O)/C1=C(/O)CCC | 43 µM
CCCOc1ccc2oc(=O)c3c(c2c1)CCCN3C(=O)CN1CCN(c2ncccn2)CC1 | 20.8 µM
CC(C)C1N=C(c2ccc3c(c2)OCO3)CC(c2ccccc2O)N1 (configuration not stated) | 20.8 µM
O=[N+]([O-])/C=C/c1cn(Cc2ccccc2)c2ccccc12 | 82.9 µM
Cc1c(Cl)ccc2sc(N3CCN(C(=O)C4=COCCO4)CC3)nc12 | 26.2 µM
Cc1nc2ccccc2c2nc3ccccc3n12 | 33.8 µM
CCCNc1nc(-c2cc(C(=O)Nc3ccccc3)on2)cc(C(C)C)n1 | 35 µM

Compound | IC50
CCc1nc(N2CCN(C(C)=O)CC2)c2c3c(sc2n1)CC(C(C)(C)C)CC3 (configuration not stated) | 12.8 µM
C/C(=N\Nc1ccc(Cl)c(Cl)c1)c1ccc(-n2ccnc2)cc1 | 65.8 µM
CCN(CC)C(=O)[C@H]1CC(CC(=O)NCC23CC4CC(CC(C4)C2)C3)C(=O)N2CCc3c([nH]c4ccccc34)[C@]12C (some centres not stated) | 18.3 µM
CCOC(=O)c1[nH]c2ccc(F)cc2c1NC(=O)CN1CCN(C/C=C/c2ccccc2)CC1 | 19.1 µM
Brc1ccc(N/N=C(/N=Nc2nn[nH]n2)c2ccccc2)cc1 | 14.2 µM
CCCCOC(=O)NS(=O)(=O)c1sc(CC(C)C)cc1-c1ccc(Cn2c(CC)nc3c(C)cc(C)nc32)cc1 | 26.4 µM
c1ccc(-c2cn3c(n2)CCc2ccc4cccnc4c2-3)cc1 | 8.12 µM
Cc1cc(C2N=C(N)Nc3nc4ccccc4n32)c(C)n1-c1ccccc1Cl (configuration not stated) | 12.1 µM
O=C(C1CC1)N1CCCC(c2ccc(Cl)cc2)=N1 | 33.1 µM
CCCOc1ccc2c(c1)C(=NN=C(N)N)c1cc(OCCC)ccc1-2 | 12.4 µM
COc1ccc(C=C2C=C(C(C)(C)C)C(=O)C(C(C)(C)C)=C2)cc1OC | 2.94 µM
COC(=O)[C@@H](NC(=O)O[C@@H]1C(=O)c2ccc(OC)cc2O[C@H]1c1cccc(C(F)(F)F)c1)C(C)C | 56.2 µM
CCc1ccc(NC2=NCC(c3ccccc3)S2)cc1 (configuration not stated) | 3.03 µM
COC(=O)CSc1nnc([C@H](CC(C)C)NC(=O)OC(C)(C)C)o1 | 14.5 µM
Cc1cc2c(ccc3c2no[n+]3[O-])nn1 | 11.6 µM
Cc1nc(N)nc(N)c1CCCc1ccc(Cl)c(Cl)c1 | 78.2 µM
CCOc1ccc(Nc2cc(C)nc(-n3nc(C)cc3C)n2)cc1 | 0.7 µM
CS(=O)(=O)c1ncc(Cl)c(C(=O)Nc2ccc(OC(F)F)cc2)n1 | 5.68 µM
O=C(c1ccc(-c2cccc(C(F)(F)F)c2)o1)N1CCN(c2ccccc2O)CC1 | 18.5 µM
CCCCNC(=S)Nc1ccc2cn[nH]c2c1 | 11.2 µM
CC(=O)Nc1ccc(S(=O)(=O)Nc2ccc(N3CCCCC3)cc2)cc1 | 12.4 µM
CCn1cc(Br)c(C(=O)Nc2ccc(C(=O)OC(C)C)cc2)n1 | 35.5 µM

Compound | IC50
Cc1c(OCc2ccccc2)c(=O)ccn1Cc1ccc(Cl)cc1 | 39.4 µM
CCOC(=O)c1ccc(NC(=O)Cn2ncc(Cl)c(Cl)c2=O)cc1 | < 0.2 µM
OC(COC(c1ccc(Cl)cc1)c1ccc(Cl)cc1)CN1CCc2ccccc2C1 (configuration not stated) | 18.8 µM
CC1CCc2c(sc3ncnc(NCCCOC(C)C)c23)C1 (configuration not stated) | 53.2 µM
Cc1ccc2nc(-c3ccncc3)cc(-c3ccccc3)c2c1 | 36.1 µM
COC(=O)COc1ccc(-c2ccccc2)cc1C=O | 11 µM
CNc1ncnc2c1ncn2[C@@H]1O[C@H](CO)[C@@H](O)[C@H]1O | 2.68 µM
O[C@@H](c1cc(C(F)(F)F)nc2c(C(F)(F)F)cccc12)[C@H]1CCCCN1 | 18.2 µM
CCOC(=O)c1ccc(Oc2nc(NC(C)(C)C)nc(N(C)C)n2)cc1 | 21.3 µM
CC(C)OC(=O)CSc1nc2ccccc2s1 | 12.4 µM
COc1cc2c(cc1OC)CN(CCC(=O)c1ccc(Br)cc1)CC2 | 12.1 µM
Cc1cc(N2CCN(c3ccc(C(F)(F)F)cc3[N+](=O)[O-])CC2)c2ccccc2n1 | 21.4 µM
CC1(C)CN(c2ccccc2)N(C(=O)c2ccc(C#N)cc2)C1=O | 72.4 µM
O=C(CCC(=O)OCc1ccc(C(=O)Oc2ccc(Cl)cc2)cc1)Nc1ccccc1 | 16.4 µM
Cc1nc(S/C(=C/c2ccc(-c3ccc(Cl)cc3)o2)C(=O)O)n[nH]1 | 18.4 µM
CC(C)n1cnc2c(NCc3ccccc3)cc(Cc3ccc(F)cc3)cc21 | 26.9 µM
COc1ccccc1NC(=O)C(C)OC(=O)/C=C/c1ccc2ccccc2n1 (configuration not stated) | 3.82 µM
O=C(CSc1ncnc2nc[nH]c12)c1ccc(Cl)cc1 | 12.1 µM
CC(C)CNC(=S)NC(=O)c1csc([N+](=O)[O-])c1 | 6.74 µM
COc1ccc(-c2cc(-c3ccc(OC)cc3)[nH]n2)cc1 | 0.33 µM
O=C(CCc1ccc(Oc2cc([N+](=O)[O-])cc([N+](=O)[O-])c2)cc1)N1CCCCCC1 | 4.2 µM
